Strand notation (5' to 3'): a small letter for the sugar, then the base; units joined by * are phosphorothioate-linked, units joined directly phosphodiester-linked; [ ] holds rarer units or linkages, { } end groups; capitals alone tell only the bases. e = 2'-O-(2-methoxyethyl) (MOE); [5mC] = 5-methylcytosine; d = 2'-deoxy (DNA)
System: human PKK mRNA
Assay: Antisense inhibition of human PKK mRNA in HepaRG cells, 3,000 nM (Example 1)
Type: cell-based
Details: relative to untreated control cells
Protocol: Antisense oligonucleotides were designed targeting a PKK nucleic acid and were tested for their effects on PKK mRNA in vitro. HepaRG™ cells, which are terminally differentiated hepatic cells derived from a human hepatic progenitor cell line and retain many characteristics of primary human hepatocytes (Lubberstedt M. et al., J. Pharmacol. Toxicol. Methods 2011 63: 59-68), were used in the screen.
The chimeric antisense oligonucleotides in the tables below were designed as 5-10-5 MOE gapmers. The gapmers are 20 nucleosides in length, wherein the central gap segment comprises of ten 2′-deoxynucleosides and is flanked by wing segments on the 5′ direction and the 3′ direction comprising five nucleosides each. Each nucleoside in the 5′ wing segment and each nucleoside in the 3′ wing segment has a 2′-O-methoxyethyl modification. The internucleoside linkages throughout each gapmer are phosphorothioate linkages. All cytosine residues throughout each gapmer are 5-methylcytosines. “Start site” indicates the 5′-most nucleoside to which the gapmer is targeted in the human gene sequence. “Stop site” indicates the 3′-most nucleoside to which the gapmer is targeted in the human gene sequence.
Cultured HepaRG™ cells at a density of 20,000 cells per well were transfected using electroporation with 3,000 nM antisense oligonucleotide. After a treatment period of approximately 24 hours, RNA was isolated from the cells and PKK mRNA levels were measured by quantitative real-time PCR. Human primer probe set RTS3454 (forward sequence […], designated herein as SEQ ID NO: 20; reverse sequence […], designated herein as SEQ ID NO: 21; probe sequence […], designated herein as SEQ ID NO: 22) was used to measure mRNA levels. PKK mRNA levels were adjusted according to total RNA content, as measured by RIBOGREEN®. The antisense oligonucleotides were tested in a series of experiments that had similar culture conditions. Results are presented as percent inhibition of PKK, relative to untreated control cells.

[1] = Table 2, PKK mRNA, HepaRG cells, 3,000 nM, electroporation, ~24 h
[2] = Table 3, HepaRG cells, electroporation with 3,000 nM antisense oligonucleotide, approx. 24 hours, PKK mRNA by RT-PCR (RTS3454)
[3] = Table 1, PKK mRNA, HepaRG cells, 3,000 nM, electroporation, ~24 h
[4] = Table 4, HepaRG cells, electroporation with 3,000 nM antisense oligonucleotide, approx. 24 hours, PKK mRNA by RT-PCR (RTS3454)

## 531039 (antisense eT*eA*e[5mC]*e[5mC]*e[5mC]*dA*dA*d[5mC]*dA*dG*dT*dT*dG*dG*dT*eA*eT*eA*eA*eA) [compound 531039]
[1]
  % inhibition: 36%

## 531140 (antisense eT*e[5mC]*eT*eT*e[5mC]*d[5mC]*dA*dG*dG*d[5mC]*d[5mC]*dA*dA*d[5mC]*d[5mC]*eA*e[5mC]*e[5mC]*eT*eT) [compound 531140]
[2]
  % inhibition: 22%

## 531150 (antisense eT*e[5mC]*e[5mC]*eT*eT*dA*dA*dT*dA*dG*dT*d[5mC]*dA*dT*dA*eG*e[5mC]*eA*eG*eG) [compound 531150]
[2]
  % inhibition: 48%

## 530980 (antisense eT*eT*eG*e[5mC]*eA*dG*dG*dT*dT*dA*dA*dA*dA*dG*dG*e[5mC]*eT*eA*eT*eA) [compound 530980]
[3]
  % inhibition: 29%

## 531174 (antisense eT*eG*eT*eT*eA*dA*dG*dT*dA*dT*dA*dT*dT*dA*dA*e[5mC]*eT*eA*eT*eT) [compound 531174]
[4]
  % inhibition: 10%

## 531036 (antisense eG*eT*eG*eT*e[5mC]*dA*d[5mC]*d[5mC]*dT*dT*dT*dG*dG*dA*dA*eG*eG*eT*eA*eG) [compound 531036]
[1]
  % inhibition: 71%

## 531064 (antisense eG*eT*eG*eT*eA*dG*dA*d[5mC]*dA*d[5mC]*d[5mC]*dA*dG*dG*dT*eT*eG*e[5mC]*eT*e[5mC]) [compound 531064]
[1]
  % inhibition: 56%

## 530952 (antisense e[5mC]*eT*eG*eA*eA*dT*dA*dG*d[5mC]*dA*dA*dA*d[5mC]*dA*d[5mC]*e[5mC]*eT*eT*eG*eG) [compound 530952]
[3]
  % inhibition: 38%

## 531021 (eG*eT*e[5mC]*eT*eG*dA*d[5mC]*dA*dG*dA*dT*dT*dT*dA*dA*eA*eA*eT*eG*e[5mC]; antisense) [compound 531021]
[1]
  % inhibition: 50%

## 530935 (antisense eG*e[5mC]*eT*eT*eG*dA*dA*dT*dA*dA*dA*dA*dT*d[5mC]*dA*eT*eT*e[5mC]*eT*eG) [compound 530935]
[3]
  % inhibition: 0%

## 531213 (e[5mC]*eA*eA*eA*eA*dT*dT*dA*dA*dT*dT*dG*dT*dG*d[5mC]*eA*eT*eA*eA*eT; antisense) [compound 531213]
[4]
  % inhibition: 13%

## 531160 (antisense eT*eG*eA*eT*eA*dT*d[5mC]*dA*dT*d[5mC]*dA*dT*d[5mC]*d[5mC]*d[5mC]*eA*eA*eT*eG*eA) [compound 531160]
[2]
  % inhibition: 13%

## 531090 (eA*e[5mC]*eA*eG*eA*dA*dA*d[5mC]*d[5mC]*dA*dT*dG*dA*dT*dG*eT*eT*eG*e[5mC]*eT; antisense) [compound 531090]
[2]
  % inhibition: 59%

## 531184 (antisense eA*e[5mC]*eT*e[5mC]*eT*dT*dA*dT*dT*dA*dG*d[5mC]*dT*dG*dG*eT*eA*eG*eA*eA) [compound 531184]
[4]
  % inhibition: 74%
